{"source": "patent US20080255153A1", "about": "“New compounds” (BIOVITRUM AB (publ), priority 2007, published 2008)", "target": "T1, stearoyl-CoA desaturase (SCD) (Rattus norvegicus, UniProt P07308)", "T1 construct": "0.032 mg/ml rat liver microsomes (total protein content); from tissue", "T1 sequence (P07308 1-358)": "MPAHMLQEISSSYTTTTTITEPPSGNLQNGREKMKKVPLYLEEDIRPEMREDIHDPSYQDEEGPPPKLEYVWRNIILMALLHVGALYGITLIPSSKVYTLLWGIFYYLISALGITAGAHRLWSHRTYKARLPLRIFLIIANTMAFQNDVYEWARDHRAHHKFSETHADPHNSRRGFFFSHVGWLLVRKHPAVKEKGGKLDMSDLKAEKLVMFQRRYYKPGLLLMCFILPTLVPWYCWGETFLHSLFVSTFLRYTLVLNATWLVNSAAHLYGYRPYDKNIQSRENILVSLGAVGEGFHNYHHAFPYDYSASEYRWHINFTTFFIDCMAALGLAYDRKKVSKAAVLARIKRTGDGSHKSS", "assay": "Tritium release screening assay for inhibition of stearoyl-CoA desaturase activity in rat liver microsomes (96- or 384-well)", "format": "biochemical", "details": "[3H]-stearoyl-CoA, 20 min pre-incubation, 20 min reaction", "description": "The tritium release assay for the measurement of SCD activity is thus well documented in the literature. Descriptions on how these finding have been used to produce standard screening assays in 96-well plates are also available [Brownlie, Hayden, Attie, Ntambi, Gray-Keller, & Miyazaki (2001) WO 01/62954; Wu, Gallipoli, Gallagher, & Gardell (2004) WO 2004/04776]. We have adopted the tritium release assay to a 384-well format to improve throughput even further.\nMicrosomal preparations were prepared from the livers of Male Sprague-Dawley rats that had been fasted and then refed a low fat/high carbohydrate diet. The preparation of microsomes was adopted from Seifried and Gaylor [Seifried & Gaylor (1976) J. Biol. Chem. 251, 7468-7473]. Confirmation of compound activity on human material was made based on microsomal preparations from HepG2 cells. All other reagents were purchased from commercial sources. The assay was run in 96 or 384-well microtiter plates by consecutive additions of a test compound solution, a microsomal preparation solution and a substrate containing solution. The final concentrations of all reagents in a total assay volume of 40 μl per well (in the 384-well plate format) were: • 0.11 μM [^3H]-stearoyl-CoA • 50 nM stearoyl-CoA • 0.032 mg/ml rat liver microsomes (total protein content) • 2 mM NADH • 220 mM sucrose • 44 mM NaH2PO4 pH adjusted to 6.8 • 130 mM KCl • 1.3 mM GSH • 0.05 mM CoA • 0.1% BSA • 0.29 mM nicotine amide • 15 mM NaF • 1.1 mM ATP • 4.9 mM MgCl2 • 0.002% Tween-20 • A test compound at various concentrations (which also adds 0.5-2% DMSO to the final solution)\nThe test compounds were pre-incubated for 20 minutes with the microsomal preparation prior to starting the reaction by the addition of substrate. The enzymatic reaction was allowed to proceed for 20 minutes and then optionally slowed by an addition of 40 μl of a 2% DMSO solution in water containing a known inhibitor of SCD activity. The solutions were mixed and then 70 μl of the total 80 μl were transferred to a filter plate containing predispensed activated charcoal. The plate was then centrifuged and the filtrate collected in a collector plate to which 40 μl of Optiphase Supermix was added per well. Following an 18 h equilibration time at room temperature the plate was read in a Trilux MicroBeta (two minutes counting time per well). […] The inhibitory potency or IC50 values of test compounds on SCD activity were defined by applying the same assay in the presence of sub-nM to sub-mM compound concentrations.", "data": [{"smiles": "Cc1nc2c(C(=O)NCCOCCO)cnn2cc1Cc1ccc(F)c(OC(F)(F)F)c1", "note": "[Example 38, 6-[4-Fluoro-3-(trifluoromethoxy)benzyl]-N-[2-(2-hydroxyethoxy)ethyl]-5-methyl-pyrazolo[1,5-α]pyrimidine-3-carboxamide]", "values": [{"measurement": "IC50", "result": 140, "unit": "nM"}]}, {"smiles": "Cc1c(Cc2ccccc2)cnc2c(C(=O)NCCOCCO)cnn12", "note": "[Example 39, 6-Benzyl-N-[2-(2-hydroxyethoxy)ethyl]-7-methylpyrazolo[1,5-α]pyrimidine-3-carboxamide]", "values": [{"measurement": "IC50", "result": 610, "unit": "nM"}]}, {"smiles": "NC(=O)CNC(=O)c1cnn2cc(Sc3cccc(C(F)(F)F)c3)cnc12", "note": "[Example 50, N-(2-Amino-2-oxoethyl)-6-{[3-(trifluoromethyl)phenyl]thio}pyrazolo[1,5-α]-pyrimidine-3-carboxamide]", "values": [{"measurement": "IC50", "result": 480, "unit": "nM"}]}, {"smiles": "O=CNCCNC(=O)c1cnn2cc(Cc3ccc(Br)cc3)cnc12", "note": "[Example 25, 6-(4-Bromobenzyl)-N-[2-(formylamino)ethyl]pyrazolo[1,5-α]pyrimidine-3-carboxamide]", "values": [{"measurement": "IC50", "result": 27, "unit": "nM"}]}, {"smiles": "NC(=O)COC(=O)c1cnn2cc(Cc3ccc(F)c(C(F)(F)F)c3)cnc12", "note": "[Example 48, 2-Amino-2-oxoethyl 6-[4-fluoro-3-(trifluoromethyl)benzyl]pyrazolo[1,5-α]pyrimidine-3-carboxylate]", "values": [{"measurement": "IC50", "result": 91, "unit": "nM"}]}, {"smiles": "NC(=O)CNC(=O)c1cnn2cc(Cc3cccc(Cl)c3Cl)cnc12", "note": "[Example 56, N-(2-Amino-2-oxoethyl)-6-(2,3-dichlorobenzyl)pyrazolo[1,5-α]pyrimidine-3-carboxamide]", "values": [{"measurement": "IC50", "result": 22, "unit": "nM"}]}]}
